Measurements as given in patent US10172822B2, “Pharmaceutical use of 3-benzylsulfonylpropionitrile” (Olatec Therapeutics LLC, priority 2013, dated 2019).

Tests used:
[1] = system: arachidonic acid-induced ear swelling; experiment: topical arachidonic acid-induced ear swelling model in mice; assay type: in vivo
Method: The test compound, indomethacin (positive control), and vehicle were evaluated for anti-inflammatory activity in a topical arachidonic acid-induced ear swelling model in mice. Male ICR mice weighing 22±2 g were used and randomly divided; the test compound and vehicle control had 10 mice, and indomethacin had 5 mice. Arachidonic Acid (0.5 mg in 20 μl of acetone:ethanol/1:1) was applied topically to the anterior and posterior surfaces of the right ear of each mice. Test substances and vehicle, as listed in Table 1 were similarly applied 30 min before and 15 min after arachidonic acid application. The thickness of the right ear and the left ear was measured and the difference calculated as an indication of the inflammation in the right ear. Ear swelling was measured by a Dyer model micrometer gauge at 60 and 90 minutes after arachidonic acid application as an index of inflammation. Percent inhibition was calculated according to the formula: Ic−It/Ic×100, where Ic and It refers to increase of ear thickness (mm) in control and treated mice, respectively. ANOVA and Dunnett's test were employed to ascertain significant difference between vehicle control and treated groups. Significance is set at P<0.05 level.

[2] = system: tail flick reaction to heat; experiment: tail flick test in mice (49° C. water bath); assay type: in vivo
Method: The tail flick test is a test of the pain response in animals. The tail flick test is used in basic pain research and to measure the effectiveness of analgesics, by observing the tail flick reaction to heat in an animal. This test assesses the nociceptive response to a local pain stimulus, and the ability of a drug to inhibit this response.
Vehicle control (DMSO) and test compound 3-benzylsulfonylpropionitrilein in DMSO were administered by oral gavage to mice with a volume of 5 mL/kg, immediately prior to testing, at time zero. The test compound was administered at a dosage of 500 mg/kg in DMSO. Positive control morphine in water was administered at time zero by subcutaneous injection at 8 mg/kg to mice. […] The purpose of morphine is […] to serve as a comparison with the test compound. Each group had 10 mice.
The response of mice to heat stimulus was evaluated by measuring the time of tail-flick or tail-flick latency from 49° C. water bath. Briefly, the animal was held with its tail hanging down. Approximately 2 inches of the tail was immersed in a beaker of water at 38±1° C. for about 30 seconds, and this was done twice to acclimate the animal to the procedure.
Subsequently, approximately 2 inches of the tail was immersed in a beaker of water at 49±1° C., at which point a timer was started.
Tail flick measurements were made at 0, 30, 60, and 120 minutes post administration of the dosage of test compound, vehicle, or morphine. An ANOVA was done, and if p<0.05, a Dunnett's t test was employed to calculate significant difference between vehicle control and test compound treated groups. A pairwise Student's t test was used to calculate differences between the morphine group and the control group. […] Analysis with p-values <0.05 is considered significant.

In the case of N#CCCS(=O)(=O)Cc1ccccc1 [3-Benzylsulfonylpropionitrile, 3-benzylsulfonylpropionitrile], the “anti-inflammatory activity in the mouse ear swelling model” value ([1]; applied topically, inflammation induced by arachidonic acid) is reported as “anti-inflammatory” and the “tail flick latency compared with vehicle-treated mice” value ([2]; oral administration 500 mg/kg in DMSO, 30, 60, and 120 minutes post dosing) is reported as “statistically significant tail flick latency”.
With COc1ccc2c(c1)c(CC(=O)O)c(C)n2C(=O)c1ccc(Cl)cc1 [Indomethacin, indomethacin, reference compound] the “% Inhibition of ear swelling” value ([1]; topical application 30 min before and 15 min after arachidonic acid, measured at 90 minutes after arachidonic acid, relative to vehicle) was 58%.
For CN1CC[C@]23c4c5ccc(O)c4O[C@H]2[C@@H](O)C=C[C@H]3[C@H]1C5 [morphine], the “tail flick latency compared with vehicle-treated mice” value ([2]; subcutaneous injection 8 mg/kg, 30 and 60 minutes post dosing) was “statistically significant tail flick latency” and the “tail flick latency compared with vehicle-treated mice” value ([2]; subcutaneous injection 8 mg/kg, 120 minutes post dosing) was “not”.
